# Experimental data: PubChem BioAssay AID1745844 (Carcinogenic Potency Database (CPDB), 2022)
# Calls of active or inactive are those of the source. No rule for the calls is given here.
# System: rodent lifetime carcinogenesis bioassay, tumor incidence TD50
# Experiment: carcinogenic potency in animals, long-term in vivo studies, CPDB compilation (AID 1745844)
compound,measurement,setting,value
CCOC(N)=O,TD50,"hamster, strain Syrian Golden, females, in drinking water, site: adrenal gland, lesion: cortical carcinoma, dosed 90 weeks, study length 90 weeks",349 mg/kg/day
same,TD50,"hamster, strain Syrian Golden, females, in drinking water, site: adrenal gland, lesion: several types, types named in the paper, dosed 90 weeks, study length 90 weeks",318 mg/kg/day
same,TD50,"hamster, strain Syrian Golden, females, in drinking water, site: cecum, lesion: adenomatous polyp, dosed 90 weeks, study length 90 weeks",294 mg/kg/day
same,TD50,"hamster, strain Syrian Golden, females, in drinking water, site: dermis, lesion: melanocytoma, dosed 90 weeks, study length 90 weeks",74.4 mg/kg/day
same,TD50,"hamster, strain Syrian Golden, females, in drinking water, site: forestomach, lesion: carcinoma, dosed 90 weeks, study length 90 weeks",374 mg/kg/day
same,TD50,"hamster, strain Syrian Golden, females, in drinking water, site: forestomach, lesion: papilloma, dosed 55 weeks, study length 55 weeks",102 mg/kg/day
same,TD50,"hamster, strain Syrian Golden, females, in drinking water, site: forestomach, lesion: papilloma, dosed 90 weeks, study length 90 weeks",44.5 mg/kg/day
same,TD50,"hamster, strain Syrian Golden, females, in drinking water, site: gall bladder, lesion: papilloma, dosed 90 weeks, study length 90 weeks",682 mg/kg/day
same,TD50,"hamster, strain Syrian Golden, females, in drinking water, site: lung, lesion: adenoma, dosed 90 weeks, study length 90 weeks",1360 mg/kg/day
same,TD50,"hamster, strain Syrian Golden, females, in drinking water, site: ovary, lesion: carcinoma, dosed 90 weeks, study length 90 weeks",682 mg/kg/day
same,TD50,"hamster, strain Syrian Golden, females, in drinking water, site: skin, lesion: melanotic tumor, dosed 55 weeks, study length 55 weeks",496 mg/kg/day
same,TD50,"hamster, strain Syrian Golden, females, in drinking water, site: thyroid gland, lesion: several types, types named in the paper, dosed 90 weeks, study length 90 weeks",538 mg/kg/day
same,TD50,"hamster, strain Syrian Golden, females, in drinking water, site: vagina, lesion: carcinoma, dosed 90 weeks, study length 90 weeks",314 mg/kg/day
same,TD50,"hamster, strain Syrian Golden, males, in drinking water, site: adrenal gland, lesion: cortical adenoma, dosed 103 weeks, study length 103 weeks",564 mg/kg/day
same,TD50,"hamster, strain Syrian Golden, males, in drinking water, site: cecum, lesion: adenomatous polyp, dosed 103 weeks, study length 103 weeks",765 mg/kg/day
same,TD50,"hamster, strain Syrian Golden, males, in drinking water, site: dermis, lesion: melanocytoma, dosed 103 weeks, study length 103 weeks",109 mg/kg/day
same,TD50,"hamster, strain Syrian Golden, males, in drinking water, site: forestomach, lesion: carcinoma, dosed 103 weeks, study length 103 weeks",135 mg/kg/day
same,TD50,"hamster, strain Syrian Golden, males, in drinking water, site: forestomach, lesion: papilloma, dosed 76 weeks, study length 76 weeks",95.8 mg/kg/day
same,TD50,"hamster, strain Syrian Golden, males, in drinking water, site: forestomach, lesion: papilloma, dosed 103 weeks, study length 103 weeks",64.2 mg/kg/day
same,TD50,"hamster, strain Syrian Golden, males, in drinking water, site: liver, lesion: several types, types named in the paper, dosed 103 weeks, study length 103 weeks",1280 mg/kg/day
same,TD50,"hamster, strain Syrian Golden, males, in drinking water, site: lung, lesion: adenoma, dosed 103 weeks, study length 103 weeks",927 mg/kg/day
same,TD50,"hamster, strain Syrian Golden, males, in drinking water, site: skin, lesion: melanotic tumor, dosed 76 weeks, study length 76 weeks",74.2 mg/kg/day
same,TD50,"monkey, strain Cynomolgus [Macaca fascicularis], both sexes, in feed, site: any site (literature study), lesion: benign tumor, dosed 258 weeks, study length 1208 weeks",128 mg/kg/day
same,TD50,"monkey, strain Cynomolgus [Macaca fascicularis], both sexes, in feed, site: any site (literature study), lesion: malignant tumor, dosed 258 weeks, study length 1208 weeks",21.5 mg/kg/day
same,TD50,"monkey, strain Cynomolgus [Macaca fascicularis], both sexes, in feed, site: any site (literature study), lesion: several types, types named in the paper, dosed 258 weeks, study length 1208 weeks",25.5 mg/kg/day
same,TD50,"monkey, strain Cynomolgus [Macaca fascicularis], both sexes, in feed, site: liver, lesion: hemangiosarcoma, dosed 258 weeks, study length 1208 weeks",95 mg/kg/day
same,TD50,"monkey, strain Cynomolgus [Macaca fascicularis], both sexes, in feed, site: liver, lesion: hepatocellular adenoma, dosed 258 weeks, study length 1208 weeks",31.7 mg/kg/day
same,TD50,"monkey, strain Cynomolgus [Macaca fascicularis], both sexes, in feed, site: lung, lesion: bronchogenic carcinoma, dosed 258 weeks, study length 1208 weeks",31.7 mg/kg/day
same,TD50,"monkey, strain Cynomolgus [Macaca fascicularis], both sexes, in feed, site: pancreas, lesion: adenocarcinoma, dosed 258 weeks, study length 1208 weeks",52.8 mg/kg/day
same,TD50,"monkey, strain Cynomolgus [Macaca fascicularis], both sexes, in feed, site: several sites, pooled by Berkeley, lesion: several types, pooled by Berkeley, dosed 258 weeks, study length 1208 weeks",16.4 mg/kg/day
same,TD50,"monkey, strain Rhesus [Macaca mulatta], both sexes, in feed, site: adrenal gland, lesion: pheochromocytoma, dosed 258 weeks, study length 1281 weeks",117 mg/kg/day
same,TD50,"monkey, strain Rhesus [Macaca mulatta], both sexes, in feed, site: any site (literature study), lesion: benign tumor, dosed 258 weeks, study length 1281 weeks",75.9 mg/kg/day
same,TD50,"monkey, strain Rhesus [Macaca mulatta], both sexes, in feed, site: any site (literature study), lesion: malignant tumor, dosed 258 weeks, study length 1281 weeks",52.9 mg/kg/day
same,TD50,"monkey, strain Rhesus [Macaca mulatta], both sexes, in feed, site: any site (literature study), lesion: several types, types named in the paper, dosed 258 weeks, study length 1281 weeks",26.3 mg/kg/day
same,TD50,"monkey, strain Rhesus [Macaca mulatta], both sexes, in feed, site: cheek pouch, lesion: squamous-cell papilloma, dosed 258 weeks, study length 1281 weeks",75.5 mg/kg/day
same,TD50,"monkey, strain Rhesus [Macaca mulatta], both sexes, in feed, site: jejunum, lesion: adenocarcinoma, dosed 258 weeks, study length 1281 weeks",65.2 mg/kg/day
same,TD50,"monkey, strain Rhesus [Macaca mulatta], both sexes, in feed, site: liver, lesion: hemangiosarcoma, dosed 258 weeks, study length 1281 weeks",143 mg/kg/day
same,TD50,"monkey, strain Rhesus [Macaca mulatta], both sexes, in feed, site: liver, lesion: hepatocellular carcinoma, dosed 258 weeks, study length 1281 weeks",143 mg/kg/day
same,TD50,"monkey, strain Rhesus [Macaca mulatta], both sexes, in feed, site: several sites, pooled by Berkeley, lesion: several types, pooled by Berkeley, dosed 258 weeks, study length 1281 weeks",44.8 mg/kg/day
same,TD50,"mouse, strain B6AKF1, females, oral dosing, site: Harderian gland, lesion: adenoma, dosed 73 weeks, study length 73 weeks",59.7 mg/kg/day
same,TD50,"mouse, strain B6AKF1, females, oral dosing, site: all sites, lesion: angioma, dosed 73 weeks, study length 73 weeks",31.7 mg/kg/day
same,TD50,"mouse, strain B6AKF1, females, oral dosing, site: any site (literature study), lesion: several types, types named in the paper, dosed 73 weeks, study length 73 weeks",9.73 mg/kg/day
same,TD50,"mouse, strain B6AKF1, females, oral dosing, site: liver, lesion: hepatoma, dosed 73 weeks, study length 73 weeks",89.9 mg/kg/day
same,TD50,"mouse, strain B6AKF1, females, oral dosing, site: lung, lesion: adenoma, dosed 73 weeks, study length 73 weeks",29.3 mg/kg/day
same,TD50,"mouse, strain B6AKF1, females, oral dosing, site: lung, lesion: carcinoma, dosed 73 weeks, study length 73 weeks",89.9 mg/kg/day
same,TD50,"mouse, strain B6AKF1, females, oral dosing, site: lung, lesion: several types, types named in the paper, dosed 73 weeks, study length 73 weeks",12.5 mg/kg/day
same,TD50,"mouse, strain B6AKF1, males, oral dosing, site: Harderian gland, lesion: adenoma, dosed 72 weeks, study length 72 weeks",35.8 mg/kg/day
same,TD50,"mouse, strain B6AKF1, males, oral dosing, site: all sites, lesion: reticulum-cell sarcoma, dosed 72 weeks, study length 72 weeks",77.9 mg/kg/day
same,TD50,"mouse, strain B6AKF1, males, oral dosing, site: any site (literature study), lesion: several types, types named in the paper, dosed 72 weeks, study length 72 weeks",11.2 mg/kg/day
same,TD50,"mouse, strain B6AKF1, males, oral dosing, site: liver, lesion: hepatoma, dosed 72 weeks, study length 72 weeks",39 mg/kg/day
same,TD50,"mouse, strain B6AKF1, males, oral dosing, site: liver, lesion: several types, types named in the paper, dosed 72 weeks, study length 72 weeks",26 mg/kg/day
same,TD50,"mouse, strain B6AKF1, males, oral dosing, site: lung, lesion: adenoma, dosed 72 weeks, study length 72 weeks",27.8 mg/kg/day
same,TD50,"mouse, strain B6AKF1, males, oral dosing, site: lung, lesion: several types, types named in the paper, dosed 72 weeks, study length 72 weeks",24.2 mg/kg/day
same,TD50,"mouse, strain B6C3F1, females, oral dosing, site: any site (literature study), lesion: several types, types named in the paper, dosed 68 weeks, study length 68 weeks",13.7 mg/kg/day
same,TD50,"mouse, strain B6C3F1, females, oral dosing, site: liver, lesion: hepatoma, dosed 68 weeks, study length 68 weeks",55.9 mg/kg/day
same,TD50,"mouse, strain B6C3F1, females, oral dosing, site: liver, lesion: several types, types named in the paper, dosed 68 weeks, study length 68 weeks",32.4 mg/kg/day
same,TD50,"mouse, strain B6C3F1, females, oral dosing, site: lung, lesion: adenoma, dosed 68 weeks, study length 68 weeks",97.4 mg/kg/day
same,TD50,"mouse, strain B6C3F1, females, oral dosing, site: lung, lesion: several types, types named in the paper, dosed 68 weeks, study length 68 weeks",79 mg/kg/day
same,TD50,"mouse, strain B6C3F1, males, in drinking water, site: heart, lesion: hemangiosarcoma, dosed 65 weeks, study length 70 weeks",417 mg/kg/day
same,TD50,"mouse, strain B6C3F1, males, in drinking water, site: liver, lesion: hemangioma, dosed 65 weeks, study length 70 weeks",63.3 mg/kg/day
same,TD50,"mouse, strain B6C3F1, males, in drinking water, site: liver, lesion: hemangiosarcoma, dosed 65 weeks, study length 70 weeks",122 mg/kg/day
same,TD50,"mouse, strain B6C3F1, males, in drinking water, site: liver, lesion: hepatocellular adenoma, dosed 65 weeks, study length 70 weeks",38.2 mg/kg/day
same,TD50,"mouse, strain B6C3F1, males, in drinking water, site: lung, lesion: alveolar/bronchiolar adenoma, dosed 65 weeks, study length 70 weeks",5.91 mg/kg/day
same,TD50,"mouse, strain B6C3F1, males, in drinking water, site: lung, lesion: alveolar/bronchiolar carcinoma, dosed 65 weeks, study length 70 weeks",242 mg/kg/day
same,TD50,"mouse, strain B6C3F1, males, in drinking water, site: lung, lesion: several types, types named in the paper, dosed 65 weeks, study length 70 weeks",5.91 mg/kg/day
same,TD50,"mouse, strain B6C3F1, males, oral dosing, site: any site (literature study), lesion: several types, types named in the paper, dosed 70 weeks, study length 70 weeks",22.4 mg/kg/day
same,TD50,"mouse, strain B6C3F1, males, oral dosing, site: liver, lesion: hepatoma, dosed 70 weeks, study length 70 weeks",81.7 mg/kg/day
same,TD50,"mouse, strain B6C3F1, males, oral dosing, site: liver, lesion: several types, types named in the paper, dosed 70 weeks, study length 70 weeks",46 mg/kg/day
same,TD50,"mouse, strain B6C3F1, males, oral dosing, site: lung, lesion: adenoma, dosed 70 weeks, study length 70 weeks",81.7 mg/kg/day
same,TD50,"mouse, strain B6C3F1, males, oral dosing, site: lung, lesion: several types, types named in the paper, dosed 70 weeks, study length 70 weeks",65.9 mg/kg/day
same,TD50,"mouse, strain CF-1, females, in drinking water, site: any site (literature study), lesion: several types, types named in the paper, dosed 133 weeks, study length 133 weeks",23.3 mg/kg/day
same,carcinogen call,"mouse, strain CF-1, females, in drinking water, site: liver, lesion: hepatoma, dosed 133 weeks, study length 133 weeks",negative (inactive)
same,TD50,"mouse, strain CF-1, females, in drinking water, site: lung, lesion: one or several types, types not named, dosed 133 weeks, study length 133 weeks",23.8 mg/kg/day
same,TD50,"mouse, strain CF-1, males, in drinking water, site: any site (literature study), lesion: several types, types named in the paper, dosed 125 weeks, study length 125 weeks",12.1 mg/kg/day
same,carcinogen call,"mouse, strain CF-1, males, in drinking water, site: liver, lesion: hepatoma, dosed 125 weeks, study length 125 weeks",negative (inactive)
same,TD50,"mouse, strain CF-1, males, in drinking water, site: lung, lesion: one or several types, types not named, dosed 125 weeks, study length 125 weeks",13.2 mg/kg/day
same,TD50,"mouse, strain NMRI, both sexes, in drinking water, site: any site (literature study), lesion: benign tumor, dosed 101 weeks, study length 104 weeks",0.434 mg/kg/day
same,TD50,"mouse, strain NMRI, both sexes, in drinking water, site: any site (literature study), lesion: malignant tumor, dosed 101 weeks, study length 104 weeks",14.7 mg/kg/day
same,TD50,"mouse, strain Swiss, both sexes, in feed, site: lung, lesion: adenocarcinoma, dosed 116 weeks, study length 116 weeks",5060 mg/kg/day
same,TD50,"mouse, strain Swiss, both sexes, in feed, site: lung, lesion: adenoma, dosed 116 weeks, study length 116 weeks",36.1 mg/kg/day
same,TD50,"rat, strain Sprague-Dawley, both sexes, in drinking water, site: any site (literature study), lesion: benign tumor, dosed 97 weeks, study length 104 weeks",91.2 mg/kg/day
same,TD50,"rat, strain Sprague-Dawley, both sexes, in drinking water, site: any site (literature study), lesion: malignant tumor, dosed 97 weeks, study length 104 weeks",41.3 mg/kg/day
